How the values were obtained:
Format in all cases: in vivo
[1] = tested on: barnyardgrass (Echinochloa crus-galli); assay: Test B flooded paddy test, plant response rating 0-100; conditions: Flood, 250 g ai/ha; scale 0 to 100 (0 no effect, 100 complete control); 13 to 15 days
Procedure, shortened: (§1)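 Compound was added to standing water 3 cm above soil, flood maintained, and plants held in a greenhouse before visual scoring against controls at 13 to 15 days.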

[2] = tested on: ducksalad (Heteranthera limosa); assay: as above; conditions: Flood, 250 g ai/ha; scale 0 to 100 (0 no effect, 100 complete control); 13 to 15 days
Procedure, shortened: as §1

[3] = tested on: rice (Oryza sativa); assay: as above; conditions: Flood, 250 g ai/ha; scale 0 to 100 (0 no effect, 100 complete control); 13 to 15 days
Procedure, shortened: as §1

[4] = tested on: sedge, umbrella (small-flower umbrella sedge, Cyperus difformis); assay: as above; conditions: Flood, 250 g ai/ha; scale 0 to 100 (0 no effect, 100 complete control); 13 to 15 days
Procedure, shortened: as §1

[5] = tested on: Brazilian crabgrass (Digitaria horizontalis); assay: Test E pre-/postemergence greenhouse test, plant response rating 0-100; conditions: scale 0 to 100; for Crabgrass, Brazil plant response rating: Preemergence
Procedure, shortened: (§2)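 Ratings (0 no effect to 100 complete control) came from visual comparison with untreated controls 14 to 21 days after treatment. Compounds in a surfactant-containing non-phytotoxic solvent were applied preemergence to seeded silt loam and postemergence to plants at the 1- to 4-leaf stage.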

[6] = tested on: arrowleaf sida (Sida rhombifolia); assay: as above; conditions: for Arrowleaf Sida plant response rating: Preemergence
Procedure, shortened: as §2

[7] = tested on: barnyardgrass (Echinochloa crus-galli); assay: as above; conditions: scale 0 to 100; for Barnyardgrass plant response rating: Preemergence
Procedure, shortened: as §2

[8] = tested on: dayflower (Virginia (VA) dayflower, Commelina virginica); assay: as above; conditions: scale 0 to 100; for Dayflower, VA plant response rating: Preemergence
Procedure, shortened: as §2

[9] = tested on: fall panicum (Panicum dichotomiflorum); assay: as above; conditions: scale 0 to 100; for Panicum, Fall plant response rating: Preemergence
Procedure, shortened: as §2

[10] = tested on: hairy beggarticks (Bidens pilosa); assay: as above; conditions: scale 0 to 100; for Beggarticks plant response rating: Preemergence
Procedure, shortened: as §2

[11] = tested on: palmer pigweed (Amaranthus palmeri); assay: as above; conditions: scale 0 to 100; for Pigweed, Palmer plant response rating: Preemergence
Procedure, shortened: as §2

[12] = tested on: sandbur (southern sandbur, Cenchrus echinatus); assay: as above; conditions: scale 0 to 100; for Sandbur plant response rating: Preemergence
Procedure, shortened: as §2

[13] = tested on: waterhemp (common waterhemp, Amaranthus rudis); assay: as above; conditions: scale 0 to 100; for Waterhemp plant response rating: Preemergence
Procedure, shortened: as §2

[14] = tested on: wild poinsettia (Euphorbia heterophylla); assay: as above; conditions: scale 0 to 100; for Poinsettia, Wild plant response rating: Preemergence
Procedure, shortened: as §2

C#CCn1cc(C(=O)c2ccccc2)c(-c2cc(Cl)cc(Cl)c2)n1 [Compound 39, [3-(3,5-dichlorophenyl)-1-(2-propyn-1-yl)-1H-pyrazol-4-yl]phenylmethanone]
100: Waterhemp plant response rating ([13]; 250 g ai/ha) | Waterhemp plant response rating ([13]; 500 g ai/ha)
0%: pest or weed control at 31 g/ha ([5]; Digitaria horizontalis, post-emergence, Postemergence, 31 g ai/ha, read-out: Plant response rating, Crabgrass, Brazil) | pest or weed control at 62 g/ha ([5]; Digitaria horizontalis, post-emergence, Postemergence, 62 g ai/ha, read-out: Plant response rating, Crabgrass, Brazil) | pest or weed control at 125 g/ha ([5]; Digitaria horizontalis, post-emergence, Postemergence, 125 g ai/ha, read-out: Plant response rating, Crabgrass, Brazil) | pest or weed control at 250 g/ha ([5]; Digitaria horizontalis, post-emergence, Postemergence, 250 g ai/ha, read-out: Plant response rating, Crabgrass, Brazil) | pest or weed control at 31 g/ha ([7]; Echinochloa crus-galli, post-emergence, Postemergence, 31 g ai/ha) | pest or weed control at 62 g/ha ([7]; Echinochloa crus-galli, post-emergence, Postemergence, 62 g ai/ha) | pest or weed control at 125 g/ha ([7]; Echinochloa crus-galli, post-emergence, Postemergence, 125 g ai/ha) | pest or weed control at 250 g/ha ([7]; Echinochloa crus-galli, post-emergence, Postemergence, 250 g ai/ha) | pest or weed control at 31 g/ha ([8]; Commelina virginica, post-emergence, Postemergence, 31 g ai/ha) | pest or weed control at 62 g/ha ([8]; Commelina virginica, post-emergence, Postemergence, 62 g ai/ha) | pest or weed control at 125 g/ha ([8]; Commelina virginica, post-emergence, Postemergence, 125 g ai/ha) | pest or weed control at 250 g/ha ([8]; Commelina virginica, post-emergence, Postemergence, 250 g ai/ha) | pest or weed control at 500 g/ha ([8]; Commelina virginica, post-emergence, Postemergence, 500 g ai/ha) | pest or weed control at 31 g/ha ([9]; Panicum dichotomiflorum, post-emergence, Postemergence, 31 g ai/ha) | pest or weed control at 62 g/ha ([9]; Panicum dichotomiflorum, post-emergence, Postemergence, 62 g ai/ha) | pest or weed control at 125 g/ha ([9]; Panicum dichotomiflorum, post-emergence, Postemergence, 125 g ai/ha) | pest or weed control at 250 g/ha ([9]; Panicum dichotomiflorum, post-emergence, Postemergence, 250 g ai/ha) | pest or weed control at 500 g/ha ([9]; Panicum dichotomiflorum, post-emergence, Postemergence, 500 g ai/ha) | pest or weed control at 31 g/ha ([12]; Cenchrus echinatus, post-emergence, Postemergence, 31 g ai/ha) | pest or weed control at 62 g/ha ([12]; Cenchrus echinatus, post-emergence, Postemergence, 62 g ai/ha) | pest or weed control at 125 g/ha ([12]; Cenchrus echinatus, post-emergence, Postemergence, 125 g ai/ha) | pest or weed control at 250 g/ha ([12]; Cenchrus echinatus, post-emergence, Postemergence, 250 g ai/ha) | pest or weed control at 500 g/ha ([12]; Cenchrus echinatus, post-emergence, Postemergence, 500 g ai/ha) | pest or weed control at 31 g/ha ([14]; Euphorbia heterophylla, post-emergence, Postemergence, 31 g ai/ha, read-out: Plant response rating, Poinsettia, Wild) | pest or weed control at 62 g/ha ([14]; Euphorbia heterophylla, post-emergence, Postemergence, 62 g ai/ha, read-out: Plant response rating, Poinsettia, Wild) | pest or weed control at 125 g/ha ([14]; Euphorbia heterophylla, post-emergence, Postemergence, 125 g ai/ha, read-out: Plant response rating, Poinsettia, Wild) | pest or weed control at 250 g/ha ([14]; Euphorbia heterophylla, post-emergence, Postemergence, 250 g ai/ha, read-out: Plant response rating, Poinsettia, Wild)
5%: pest or weed control at 500 g/ha ([5]; Digitaria horizontalis, post-emergence, Postemergence, 500 g ai/ha, read-out: Plant response rating, Crabgrass, Brazil)
10%: pest or weed control at 500 g/ha ([7]; Echinochloa crus-galli, post-emergence, Postemergence, 500 g ai/ha) | pest or weed control at 500 g/ha ([14]; Euphorbia heterophylla, post-emergence, Postemergence, 500 g ai/ha, read-out: Plant response rating, Poinsettia, Wild)
90%: pest or weed control at 250 g/ha ([6]; Sida rhombifolia, post-emergence, Postemergence, 250 g ai/ha, scale 0 to 100) | pest or weed control at 500 g/ha ([6]; Sida rhombifolia, post-emergence, Postemergence, 500 g ai/ha, scale 0 to 100 (0 no effect, 100 complete control)) | pest or weed control at 125 g/ha ([10]; Bidens pilosa, post-emergence, Postemergence, 125 g ai/ha) | pest or weed control at 125 g/ha ([13]; Amaranthus tuberculatus, post-emergence, Postemergence, 125 g ai/ha)
20: Pigweed, Palmer plant response rating ([11]; 62 g ai/ha)
98%: pest or weed control at 500 g/ha ([11]; Amaranthus palmeri, post-emergence, Postemergence, 500 g ai/ha) | pest or weed control at 500 g/ha ([13]; Amaranthus tuberculatus, post-emergence, Postemergence, 500 g ai/ha)
0: Plant response rating, Barnyardgrass [1] | Plant response rating, Ducksalad [2] | Plant response rating, Rice [3] | Plant response rating, Sedge, Umbrella [4] | Crabgrass, Brazil plant response rating ([5]; 62 g ai/ha) | Crabgrass, Brazil plant response rating ([5]; 125 g ai/ha) | Crabgrass, Brazil plant response rating ([5]; 250 g ai/ha) | Crabgrass, Brazil plant response rating ([5]; 500 g ai/ha) | Arrowleaf Sida plant response rating ([6]; 62 g ai/ha, scale 0 to 100) | Barnyardgrass plant response rating ([7]; 62 g ai/ha) | Barnyardgrass plant response rating ([7]; 125 g ai/ha) | Barnyardgrass plant response rating ([7]; 250 g ai/ha) | Barnyardgrass plant response rating ([7]; 500 g ai/ha) | Dayflower, VA plant response rating ([8]; 62 g ai/ha) | Dayflower, VA plant response rating ([8]; 125 g ai/ha) | Dayflower, VA plant response rating ([8]; 250 g ai/ha) | Dayflower, VA plant response rating ([8]; 500 g ai/ha) | Panicum, Fall plant response rating ([9]; 62 g ai/ha) | Panicum, Fall plant response rating ([9]; 250 g ai/ha) | Beggarticks plant response rating ([10]; 62 g ai/ha) | Beggarticks plant response rating ([10]; 125 g ai/ha) | Beggarticks plant response rating ([10]; 250 g ai/ha) | Beggarticks plant response rating ([10]; 500 g ai/ha) | Sandbur plant response rating ([12]; 62 g ai/ha) | Sandbur plant response rating ([12]; 125 g ai/ha) | Sandbur plant response rating ([12]; 250 g ai/ha) | Sandbur plant response rating ([12]; 500 g ai/ha) | Poinsettia, Wild plant response rating ([14]; 62 g ai/ha) | Poinsettia, Wild plant response rating ([14]; 125 g ai/ha) | Poinsettia, Wild plant response rating ([14]; 250 g ai/ha) | Poinsettia, Wild plant response rating ([14]; 500 g ai/ha)
90: Arrowleaf Sida plant response rating ([6]; 125 g ai/ha, scale 0 to 100) | Pigweed, Palmer plant response rating ([11]; 250 g ai/ha)
85%: pest or weed control at 125 g/ha ([6]; Sida rhombifolia, post-emergence, Postemergence, 125 g ai/ha, scale 0 to 100) | pest or weed control at 62 g/ha ([10]; Bidens pilosa, post-emergence, Postemergence, 62 g ai/ha) | pest or weed control at 250 g/ha ([11]; Amaranthus palmeri, post-emergence, Postemergence, 250 g ai/ha)
75%: pest or weed control at 31 g/ha ([6]; Sida rhombifolia, post-emergence, Postemergence, 31 g ai/ha, scale 0 to 100)
85: Pigweed, Palmer plant response rating ([11]; 500 g ai/ha) | Waterhemp plant response rating ([13]; 62 g ai/ha)
70%: pest or weed control at 31 g/ha ([11]; Amaranthus palmeri, post-emergence, Postemergence, 31 g ai/ha)
50: Pigweed, Palmer plant response rating ([11]; 125 g ai/ha)
80%: pest or weed control at 62 g/ha ([6]; Sida rhombifolia, post-emergence, Postemergence, 62 g ai/ha, scale 0 to 100) | pest or weed control at 31 g/ha ([10]; Bidens pilosa, post-emergence, Postemergence, 31 g ai/ha) | pest or weed control at 62 g/ha ([11]; Amaranthus palmeri, post-emergence, Postemergence, 62 g ai/ha) | pest or weed control at 125 g/ha ([11]; Amaranthus palmeri, post-emergence, Postemergence, 125 g ai/ha) | pest or weed control at 31 g/ha ([13]; Amaranthus tuberculatus, post-emergence, Postemergence, 31 g ai/ha)
95%: pest or weed control at 250 g/ha ([10]; Bidens pilosa, post-emergence, Postemergence, 250 g ai/ha) | pest or weed control at 500 g/ha ([10]; Bidens pilosa, post-emergence, Postemergence, 500 g ai/ha) | pest or weed control at 250 g/ha ([13]; Amaranthus tuberculatus, post-emergence, Postemergence, 250 g ai/ha)
95: Arrowleaf Sida plant response rating ([6]; 250 g ai/ha, scale 0 to 100) | Arrowleaf Sida plant response rating ([6]; 500 g ai/ha, scale 0 to 100) | Waterhemp plant response rating ([13]; 125 g ai/ha)

From patent US10167262B2, “Herbicidal substituted 3-arylpyrazoles” (FMC CORPORATION, priority 2014, dated 2019)
